Test results taken from patent US5383848A, “Iontophoretic administration of drugs” (Gensia, Inc., priority 1991, dated 1995).
Values joined by “and” are separate entries in the source; they are usually repeats but may differ in a detail not shown here. Equal entries are not always repeated.

Key:
[1] = Preclinical and clinical studies using intravenous (IV) infusion of an ESA drug; settings: in vivo, read-out: Pharmacokinetic and pharmacodynamic half-life
Description: Referring to FIG. 3, dog "PO", 0.08 microgram of GP 2-121-3 per kilogram of dog body weight per minute was administered over a 7 minute period. Referring to FIG. 4, dog "BO", 0.10 microgram of GP 2-121-3per kilogram per minute was administered over a 10 minute period.

[2] = system: elevated heart rate; test: Additional in vivo dog experiments: dermal clearance enhancer pretreatment then arbutamine TDI (Example C); design: species or system labrador dogs; settings: for CHANGE IN HEART RATE / DELAY TIME / TIME TO REACH 10% DECLINE IN HEART RATE / TIME TO REACH 20% DECLINE IN HEART RATE / TIME TO REACH 30% DECLINE IN HEART RATE / TIME TO REACH 40% DECLINE IN HEART RATE / TIME TO REACH 50% DECLINE IN HEART RATE / HALF-LIFE: single dog run, hydrochloride; for HALF-LIFE: heart rate decline
Description: Additional experiments were performed to study the effect of certain compositions on the offset time and dermal clearance in dogs.
In these experiments, the formulation to be tested was applied either topically or by transdermal iontophoresis (TDI) as described below.
Six labrador dogs (20 to 30 kg) were trained to lie quietly on a table. Before each experiment, three ECG electrodes (one lead) were applied on shaved areas of the back (near the front legs) to obtain the heart rate. The outer hind leg area (either right or left) was shaved prior to each experiment, with care taken not to cut or visibly damage the skin. The area was cleaned with soap and water and the skin was then […] using an alcohol swab followed by skin preparation with 3M One-Step-Prep™ tape.
Each vasodilator that was delivered by TDI used a 1.8 cm^2 electrode (Graphic Controls, Buffalo, N.Y.) containing the vasodilator in a gel at the concentrations listed in experimental methods section. In all experiments, an indifferent electrode containing a phosphate-buffered-saline gel was applied to the skin in conjunction with the electrode containing the vasodilator. Each vasodilator tested was applied for 10 minutes using a current of 0.6 mA/cm^2. During this time the heart rate was continuously recorded (at 5 second intervals) with the ESA Research System. The delivery electrodes were then removed, and any excess gel adhering to the skin was gently removed using a tissue.
Each topically applied vasodilator was applied to the skin in a volume of approximately 0.25 ml. The agent was allowed to absorb into the skin, during which time the heart rate was continuously recorded for 10 minutes using the ESA Research System.
To test if heat alone would produce sufficient vasodilation, a 60° C. hot pack was applied to the skin 10 minutes prior to drug delivery, during which time the heat rate was continuously recorded by the ESA System. Once drug delivery electrodes were applied, the heat pack was reheated and placed on top of them for the duration of the study.
The purpose of this treatment was to produce an elevated heart rate response of at least 40 beats-per-minute above baseline lasting for at least 30 minutes.
^1/ The dose (ITCA) was calculated by multiplying the applied current density (mA/cm^2) by the duration of delivery (minutes) and the drug concentration (%) and the area of the electrode (cm^2). […] The units of ITCA are mA.minutes.
The important variables for this analysis are:
1) delay between time when drug administration was stopped and start of decline in heart rate;
2) the time (minutes) to reach successive percent levels (i.e. 10, 20, 30, 40, and 50% decline) from the point of maximum change in heart rate^2.
3) the half-life (minutes) of the heart rate decline obtained from an exponential fit of the offset slope.
A combination of over-the-counter (OTC) and proprietary formulations were selected for comparison. […] Two dogs received each treatment at least one time.
The six dogs are identified in the table as BA, BB, BO, MI, PO and SA, followed by the experimental identification number. These dogs received control (no pretreatment) and five DCE pretreatment regimens.

[3] = system: elevated heart rate; test: In vivo dog experiments: heart rate offset after iontophoretic ESA drug with pretreatment (Example A); design: species or system labrador dogs; settings: for Offset Slope Component (0-5) min: 0-5 min after heart rate begins to decline; for Offset Slope Component (5-10) min: 5-10 min after decline begins; for Offset Slope Component (10-30) min: 10-30 min after decline begins; for Change in Heart Rate (peak minus baseline) / Peak Heart Rate: Table II; for Total time (startup) thru offset plateau: in words: Table IV; for Onset Slope: baseline at onset time to peak heart rate; for Decline in heart rate after ESA drug without pretreatment: control runs, hydrochloride; for Offset time: drug delivery stopped until within 20 bpm of baseline; for Offset Slope: drug shut-off to 20 bpm above baseline; for Delay: drug shut-off to start of heart rate decline; for Onset time: start of delivery to start of increase in heart rate; for Time Start Decline: time when elevated heart rate began to decline
[4] = Protein binding of arbutamine to albumin in IPPSF perfusate; type: in vitro ADME; settings: bovine, IPPSF perfusate media

With `Cl.Oc1ccc(CCCCNCC(O)c2ccc(O)c(O)c2)cc1` (stereo not drawn) [Arbutamine, 1-(3,4-dihydroxy-phenyl)-2-(4-(4-hydroxyphenyl)butylamino)ethanol hydrochloride] the HALF-LIFE [1] was roughly 7 min, the experimental half-life [2] was 31 min and the “heart rate following TDI arbutamine without pretreatment” value ([2]; FIGS. 3 and 4) was “prolonged elevation of heart rate”. The “CHANGE IN HEART RATE, Mean” value ([2]; Table VII, mean of runs) was 74.68 BPM, the “DELAY TIME, Mean” value ([2]; Table VII, mean of runs) was 7.10 min and the “HALF-LIFE, Mean” value ([2]; Table VII, mean of runs) was 30.91 min. For the same compound, the “TIME TO REACH 10% DECLINE IN HEART RATE, Mean” value ([2]; Table VII, mean of runs) was 10.19 min, the “TIME TO REACH 20% DECLINE IN HEART RATE, Mean” value ([2]; Table VII, mean of runs) was 15.98 min and the “TIME TO REACH 30% DECLINE IN HEART RATE, Mean” value ([2]; Table VII, mean of runs) was 21.96 min. The “TIME TO REACH 40% DECLINE IN HEART RATE, Mean” value ([2]; Table VII, mean of runs) was 27.72 min, the “TIME TO REACH 50% DECLINE IN HEART RATE, Mean” value ([2]; Table VII, mean of runs) was 31.37 min and the “CHANGE IN HEART RATE” value ([2]; Table VII, listed as Control) was 52.17 BPM and 123.25 BPM and 60.00 BPM and 88.00 BPM and 87.00 BPM and 63.00 BPM and 78.80 BPM and 54.05 BPM and 88.07 BPM and 94.17 BPM and 54.44 BPM and 58.44 BPM and 77.47 BPM and 82.88 BPM and 77.08 BPM. The “DELAY TIME” value ([2]; Table VII, listed as Control) was 1.57 min and 1.00 min and 60.00 min and 5.50 min and 7.00 min and 5.10 min and 3.66 min and 2.28 min and 0.00 min and 1.67 min and 3.10 min and 9.20 min and 8.54 min and 1.99 min and 1.44 min, the “TIME TO REACH 10% DECLINE IN HEART RATE” value ([2]; Table VII, listed as Control) was 3.20 min and 6.24 min and 60.00 min and 7.07 min and 9.35 min and 8.80 min and 5.53 min and 4.53 min and 2.28 min and 9.66 min and 7.04 min and 10.79 min and 9.50 min and 4.00 min and 4.04 min and the “TIME TO REACH 20% DECLINE IN HEART RATE” value ([2]; Table VII, listed as Control) was 4.83 min and 9.16 min and 60.00 min and 98.65 min and 11.70 min and 7.41 min and 6.79 min and 4.55 min and 19.65 min and 16.54 min and 23.38 min and 10.47 min and 5.04 min and 6.82 min. For the same compound, the “TIME TO REACH 30% DECLINE IN HEART RATE” value ([2]; Table VII, listed as Control) was 6.46 min and 12.67 min and 60.00 min and 10.21 min and 14.16 min and 9.91 min and 9.23 min and 10.58 min and 29.56 min and 23.02 min and 13.98 min and 11.43 min and 8.54 min and 11.63 min, the “TIME TO REACH 40% DECLINE IN HEART RATE” value ([2]; Table VII, listed as Control) was 19.07 min and 17.19 min and 60.00 min and 16.92 min and 18.71 min and 13.84 min and 11.73 min and 22.82 min and 29.50 min and 16.23 min and 12.39 min and 11.49 min and 13.58 min and the “TIME TO REACH 50% DECLINE IN HEART RATE” value ([2]; Table VII, listed as Control) was 22.93 min and 21.70 min and 60.00 min and 24.25 min and 24.54 min and 25.97 min and 16.68 min and 30.00 min and 33.10 min and 18.58 min and 113.35 min and 15.32 min and 15.52 min. The “CHANGE IN HEART RATE” value ([2]; Table VII, listed as control) was 56.00 BPM, the “DELAY TIME” value ([2]; Table VII, listed as control) was 1.50 min and the “TIME TO REACH 10% DECLINE IN HEART RATE” value ([2]; Table VII, listed as control) was 11.00 min. For the same compound, the “TIME TO REACH 20% DECLINE IN HEART RATE” value ([2]; Table VII, listed as control) was 60.00 min, the “TIME TO REACH 30% DECLINE IN HEART RATE” value ([2]; Table VII, listed as control) was 60.00 min and the “TIME TO REACH 40% DECLINE IN HEART RATE” value ([2]; Table VII, listed as control) was 60.00 min. The “TIME TO REACH 50% DECLINE IN HEART RATE” value ([2]; Table VII, listed as control) was 60.00 min, the HALF-LIFE ([2]; Table VII, listed as Control) was 12.53 min and 60.00 min and 20.60 min and 13.72 min and 25.09 min and 52.48 min and 2.42 min and 12.81 min and 9.60 min and the HALF-LIFE ([2]; Table VII, listed as control) was 60.00 min. For the same compound, the “Offset Slope Component (0-5) min” value ([3]; listed as 1, hydrochloride) was -0.40 beats per minute per minute, the “Offset Slope Component (0-5) min” value ([3]; listed as 2, hydrochloride) was -3.70 beats per minute per minute and the “Offset Slope Component (5-10) min” value ([3]; listed as 1, hydrochloride) was -0.80 beats per minute per minute. For the same compound, the “Offset Slope Component (5-10) min” value ([3]; listed as 2, hydrochloride) was 1.70 beats per minute per minute, the “Offset Slope Component (10-30) min” value ([3]; listed as 1, hydrochloride) was -0.02 beats per minute per minute and the “Offset Slope Component (10-30) min” value ([3]; listed as 2, hydrochloride) was -0.50 beats per minute per minute. For the same compound, the “Change in Heart Rate (peak minus baseline)” value ([3]; listed as 1, hydrochloride) was 56 bpm, the “Peak Heart Rate” value ([3]; listed as 1, hydrochloride) was 123 bpm and the “Change in Heart Rate (peak minus baseline)” value ([3]; listed as 2, hydrochloride) was 87 bpm. The “Peak Heart Rate” value ([3]; listed as 2, hydrochloride) was 160 bpm, the “Total time (startup) thru offset plateau: in words” value ([3]; listed as 1, hydrochloride) was “Never reached to w/in 20 bpm of baseline” and the “Total time (startup) thru offset plateau: in words” value ([3]; listed as 2, hydrochloride) was “Never reached to w/in 20 bpm pf baseline”. The “Onset Slope” value ([3]; listed as 1, hydrochloride) was 6.80 beats per minute per minute, the “Onset Slope” value ([3]; listed as 2, hydrochloride) was 17.60 beats per minute per minute and the “Decline in heart rate after ESA drug without pretreatment” value [3] was “essentially no reduction in heart rate”. For the same compound, the “Decline in heart rate after ESA drug without pretreatment” value ([3]; listed as ESA™ drug) was “no decline in heart rate during the first hour”, the Offset time ([3]; listed as 1, hydrochloride) was 29.00 min and the Offset time ([3]; listed as 2, hydrochloride) was 39.00 min. For the same compound, the “Offset Slope” value ([3]; listed as 1, hydrochloride) was -0.30 beats per minute per minute, the “Offset Slope” value ([3]; listed as 2, hydrochloride) was -0.25 beats per minute per minute and the Delay ([3]; listed as 1, hydrochloride) was 1.50 min. For the same compound, the Delay ([3]; listed as 2, hydrochloride) was 7.00 min, the Onset time ([3]; listed as 1, hydrochloride) was 9.00 min and the Onset time ([3]; listed as 2, hydrochloride) was 5.00 min. The “Time Start Decline” value ([3]; listed as 1, hydrochloride) was 14.00 min, the “Time Start Decline” value ([3]; listed as 2, hydrochloride) was 12.50 min and the fraction unbound [4] was 0.36.
